Source: publication PMC11778240, “Synthesis and preclinical evaluation of tigilanol tiglate analogs as latency-reversing agents for the eradication of HIV” (Science Advances, 2025)

Key:
NF-κB pathway = test: NF-κB activation assay, A549 cells with SEAP reporter; format: cell-based, Human; settings: for NF-κB activation (optical density, 630 nm): 24 hours after dosing; for NF-κB activation (optical density, 630 nm) / NF-κB activation in words: A549 cells; for NF-κB activation in words: 50 and/or 500 nM
From the text: As a high-throughput method of screening compounds for their ability to get into cells and activate immunological pathways related to HIV latency reversal ([46], [70]), we conducted an NF-κB reporter assay using A549 cells stably integrated with a secreted embryonic alkaline phosphatase reporter under the control of a promoter fused to five NF-κB binding sites (Fig. 7B) ([48], [70], [71]).
Human A549-Dual™ Cells supplied by InvivoGen (Cat. code a549d-nfis) and CHO-K1 cells were passaged when about 90% confluency was reached (approximately every three days). With each passage, media was aspirated from the cell layer, which was then washed with PBS. Following aspiration of the PBS, cells were detached from the culture flask with 0.25% GibcoTM Trypsin-EDTA and transferred to a 50 mL conical, which was volumed up with complete pre-warmed DMEM (4.5 g/L glucose, 10% FBS, and 1% Pen-Strep-Glutamine (100 X, 50 mg/mL)) or Ham's F-12K (Kaighn's) Medium supplemented with 10% FBS and 1% Pen-Strep (100 X, 50 mg/mL).
This conical was spun down at 1800 rpm for 3 minutes, the supernatant was removed, and cells were resuspended in their respective fresh, pre-warmed media. To count cells, 10 μL of resuspended cells were added to a sterile microcentrifuge tube and mixed with 10 μL of trypan blue after which 10 μL of the mixture was pipetted into a Countess chamber slide. A Countess™ 3 Automated Cell Counter was subsequently utilized to determine cell viability and concentration.
1 x 10^6 cells were seeded with each passage into a T75 culture flask, and cells were incubated at […]
Human A549 lung carcinoma cells (InvivoGen Cat. code a549d-nfis), stably integrated with a secreted embryonic alkaline phosphatase (SEAP) reporter, allow for the activity of the NF-κB pathway to be monitored. The SEAP reporter is under control of the interferon β (IFN-β) minimal promoter, which is fused to five NF-κB binding sites.
5 × 10^4 A549 cells were plated on Corning® 96 Well TC-Treated Microplates (CLS3595) in 180 μl of pre-warmed DMEM (4.5 g/L glucose, 10% heat-inactivated FBS (30 min at 56 ℃), and 1% Pen-Strep-Glutamine (100 X, 50 mg/mL)). Note that if cells were grown in media containing FBS that is not heat-inactivated, media will contain alkaline phosphatase. In this case, all supernatant must thoroughly be aspirated from the cell pellet obtained after centrifugation before resuspending cells in media containing heat inactivated FBS for plating. Following incubation at 37 °C in 5% CO2 for approximately 24 hours to allow for cell adherence onto the 96 well plate, 1.8 μL of each compound dissolved in DMSO was added in quadruplicate to their respective wells to achieve a final compound concentration of 1500 nM, 500 nM, or 50 nM. 1.8 μL of DMSO was added to wells as negative controls while wells treated with EBC-46 served as positive controls. 24 hours following compound addition, 180 μL of QUANTI-BlueTM Solution (InvivoGen Cat. code rep-qbs)- medium containing QB buffer and QB Reagent for detection and quantification of alkaline phosphatase- were added into wells on a new clear flat-bottom 96-well plate. 20 μL of supernatant of either SEAP-expressing cells incubated with compound or SEAP-expressing cells incubated with DMSO only were added to the wells in the new 96-well plate containing QUANTI-BlueTM Solution. Supernatant and QUANTI-BlueTM Solution were incubated at 37 °C in 5% CO2 for approximately an hour and a half. Following incubation, optical density (OD) at 630 nm was measured for each well using a BioTek Synergy H1 microplate reader under normal read speed and with a delay of 100 msec.

J-Lat clone 10.6 cells = test: J-Lat HIV latency reversal assay (GFP expression); format: cell-based, Human; settings: J-Lat 10.6, 48 hours; for HIV latency reversal in words: ascending concentrations
From the text: Having shown that our lead compounds bind cell-free PKC isoforms, enter cells, translocate PKC-GFP fusion proteins, and activate NF-κB transcription factors, we next set out to determine whether our analogs were capable of reversing HIV from latency. We performed in vitro assays using T lymphocyte J-Lat clone 10.6, which contains a latent near full-length replication-incompetent integrated HIV DNA genome ([72]). J-Lat 10.6 lacks two viral genes, env and nef, which encode for the envelope protein and an accessory protein, respectively, and thus cannot initiate a spreading HIV infection. The integrated HIV provirus also encodes a GFP reporter gene, allowing latency reversal to be measured by quantification of GFP expression (fig. S1). […] In this latency reversal assay, we quantified GFP expression 48 hours after compound addition and observed bryostatin 1 to be maximally effective at concentrations of 40 nM or higher with latency reversal in 12% of cells (Fig. 8). Given the efficacy of bryostatin 1 as an LRA ([73], [74]), EBC-46 and many of its analogs tested in this J-Lat assay induced latency reversal in >90% of cells. […] SUW427, an esterase-releasable prodrug of EBC-46, also performed similarly to EBC-46 with a maximum efficacy of latency reversal in >90% of cells at a dose of 250 nM. […] The gradual release of EBC-46 from its prodrug form provides an alternative mode of administration that avoids the bolus effect associated with rapid drug administration ([17]). […] This is consistent with its lack of activity in the NF-κB activation assay and its design as a negative control as it is structurally similar to EBC-46 but unable to bind to the C1 domain of PKC at the concentrations used in this assay as it lacks a complete pharmacophore.
HIV latency reversal in-vitro assay
Human T Lymphocyte J-Lat Full Length Cell Line 10.6 (cat #9849) was obtained through the NIH HIV Reagent Program, Division of AIDS, NIAID, NIH and was contributed to the NIH HIV Reagent Program by Dr. Eric Verdin (70). J-Lat 10.6 cells were plated at 5 × 10^5 cells in 180 μL of RF10 media consisting of RPMI media supplemented with 1% Penicillin/Streptomycin and 10% Fetal Bovine Serum (FBS) in 96 -well U -bottom plates. J -Lat 10.6 cells were then stimulated for 48 hr by adding 20 μL of newly designed and synthesized tigilanol tiglate analogs, PKC modulators (bryostatin 1) as our positive control or med ia only (mock) as our negative control. Our negative control was RF10 media as the tigilanol tiglate analogs were freshly diluted with RF10 prior to plating. The final volume was 200 μL per well. Experiments were performed in three independent biological replicates, each completed in technical duplicates (n = 6). After 48 hr stimulation, 96 - well U -bottom plates were centrifuged at 296 RCF for 7 minutes to pellet cells, which were resusp ended in 200 μL of freshly prepared 2% paraformaldehyde (PFA) in PBS. GF P expression was measured 24 -hours post -fixation using the FITC channel on a LSR Fortessa (BD Biosciences) flow cytometer. Data analysis was conducted with FlowJo software version 10.8.1.

Structure (SMILES) | NF-κB activation (optical density, 630 nm) (NF-κB pathway; 50 nM) | NF-κB activation (optical density, 630 nm) (NF-κB pathway; 500 nM) | NF-κB activation in words (NF-κB pathway; 24 hours) | HIV latency reversal in words (J-Lat clone 10.6 cells) | NF-κB activation, times the basal level (DMSO control) (NF-κB pathway; 50 nM, 24 hours) | latency reversal, % of cells (J-Lat clone 10.6 cells; 40 nM)
CC=C(C)C(=O)OC1C(C)C2(O)C(C3OC3(COC)C(O)C3(O)C(=O)C(C)=CC32)C2C(C)(C)C12OC(=O)C(C)CC (stereo not drawn) [SUW426] | 0.23 optical density, 630 nm | 0.23 optical density, 630 nm | did not exhibit NF-κB activation at either concentration tested | did not produce latency reversal at any tested concentration |  | 
C/C=C(\C)C(=O)O[C@@H]1[C@@H](C)[C@@]2(O)[C@H]([C@@H]3C(C)(C)[C@]13OC(=O)c1ccccc1)[C@@H]1O[C@]1(CO)[C@@H](O)[C@]1(O)C(=O)C(C)=C[C@H]12 [SUW428] | 0.31 optical density, 630 nm | 0.43 optical density, 630 nm | less effective at inducing NF-κB activation than EBC-46 at 500 nM | required a higher dose than EBC-46 before we detected reversal activity |  | 
CC[C@H](C)C(=O)O[C@@]12[C@H](OC(C)(C)C)[C@@H](C)[C@@]3(O)[C@H]([C@@H]1C2(C)C)[C@@H]1O[C@]1(CO)[C@@H](O)[C@]1(O)C(=O)C(C)=C[C@H]13 [SUW430] | 0.30 optical density, 630 nm | 0.67 optical density, 630 nm | performed comparably to EBC-46 at both concentrations | required a higher dose than EBC-46 before we detected reversal activity |  | 
C/C=C(\C)C(=O)O[C@@H]1[C@@H](C)[C@@]2(O)[C@H]([C@@H]3C(C)(C)[C@]13OC(=O)Cc1cccc3ccccc13)[C@@H]1O[C@]1(CO)[C@@H](O)[C@]1(O)C(=O)C(C)=C[C@H]12 [SUW431] | 0.74 optical density, 630 nm | 0.65 optical density, 630 nm | strong activation of NF-κB at higher concentrations but with an inverse dose response | effectively activates latent HIV at substantially lower concentrations than EBC-46 | approximately three | 90 % of cells
